# Tests used:
# LCK = LCK (Homo sapiens, UniProt P06239); experiment: Caliper kinase profiling: LCK; format: biochemical
# Hck = Hck (Homo sapiens, UniProt P08631); experiment: Caliper kinase profiling: Hck; format: biochemical
# MST1 = molecular target: T1, MST1 (Homo sapiens, UniProt Q13043); experiment: Caliper kinase profiling: MST1; format: biochemical
# T1 sequence (Q13043 1-487): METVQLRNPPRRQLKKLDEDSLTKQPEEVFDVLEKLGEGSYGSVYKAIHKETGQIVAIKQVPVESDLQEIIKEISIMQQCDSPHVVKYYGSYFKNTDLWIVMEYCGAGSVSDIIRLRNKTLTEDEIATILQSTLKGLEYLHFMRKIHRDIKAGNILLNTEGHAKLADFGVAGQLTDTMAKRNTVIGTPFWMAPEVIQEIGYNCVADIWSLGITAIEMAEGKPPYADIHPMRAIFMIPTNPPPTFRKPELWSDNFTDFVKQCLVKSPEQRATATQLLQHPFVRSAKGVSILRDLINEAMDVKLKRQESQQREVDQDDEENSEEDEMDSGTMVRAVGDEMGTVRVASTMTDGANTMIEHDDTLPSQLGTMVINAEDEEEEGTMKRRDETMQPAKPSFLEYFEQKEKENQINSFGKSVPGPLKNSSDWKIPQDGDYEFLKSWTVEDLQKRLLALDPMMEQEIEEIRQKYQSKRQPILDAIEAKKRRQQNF
# RET(Y791F) = RET(Y791F) (Homo sapiens, UniProt P07949, Y791F); experiment: Caliper kinase profiling: RET(Y791F); format: biochemical
# AMPK-α2/β1/γ1 = molecular target: T2, AMPK-α2/β1/γ1 (Homo sapiens, UniProt P54646); experiment: Caliper kinase profiling: AMPK-α2/β1/γ1; format: biochemical
# T2 construct: purchased Caliper LifeSciences (ProfilerPro Kinase Selectivity Assay Kits)
# FYN = FYN (Homo sapiens, UniProt P06241); experiment: Caliper kinase profiling: FYN; format: biochemical
# EPHA2 = EPHA2 (Homo sapiens, UniProt P29317); experiment: Caliper kinase profiling: EPHA2; format: biochemical; conditions: EPHA2, 1 μM; read-out: Average % Inh @ 1 μM
# FLT3 = FLT3 (Homo sapiens, UniProt P36888); experiment: Caliper kinase profiling: FLT3; format: biochemical; conditions: FLT3, 1 μM; read-out: Average % Inh @ 1 μM
# LYN = LYN (Homo sapiens, UniProt P07948); experiment: Caliper kinase profiling: LYN; format: biochemical
# FGFR2 = FGFR2 (Homo sapiens, UniProt P21802); experiment: Caliper kinase profiling: FGFR2; format: biochemical
# Abl(T315I) = molecular target: T3, Abl(T315I) (Homo sapiens, UniProt P00519, T315I); experiment: Caliper kinase profiling: Abl(T315I); format: biochemical
# T3 construct: purchased Caliper LifeSciences (ProfilerPro Kinase Selectivity Assay Kits)
# FGR = FGR (Homo sapiens, UniProt P09769); experiment: Caliper kinase profiling: FGR; format: biochemical
# ASPC-1 = experiment: Cell viability: pancreatic cancer cell line ASPC-1; format: cell-based; conditions: Homo sapiens, ASPC1; ASPC-1 pancreatic cancer cell line
# Protocol: This assay quantitates the ATP present in order to determine the number of viable cells in culture. Briefly, the compounds were incubated with the cells for 72 h, followed by cell lysis. The resulting luminescent signal is proportional to the amount of ATP present and, therefore, directly proportional to the number of cells present in culture.
# Analogous studies utilizing pancreatic cancer cell lines such as ASPC-1 and PANC-1 can be performed with compounds of the invention.
# [1] = system: human breast cancer MCF7 cells; experiment: Efficacy in xenograft model of human breast cancer; format: in vivo, mice
# Protocol: To evaluate the efficacy of tumor growth inhibition, the compound 8b was studied using human cancer mouse models. The models are prepared by subcutaneously or orthotopically implanting mice with human cancer cells. When the tumor size of the mice develops (e.g., reaches 100 mm^3), the mice are divided into groups for treatment with compound 8b (where different groups receiving the compound 8b may be administered different amounts of the compound 8b) or are provided no compound as a control. The mice are treated (e.g., orally administered a compound of the invention) for a period of time. During the course of the study, the tumor is measured and the weight of the mice is determined. After the treatment period, the mice are sacrificed shortly (e.g. 1 or 2 hours) after the final dose. Blood and tissue are collected for biochemical analysis.
# To evaluate the efficacy of tumor growth inhibition, compound 8b was studied using a human breast cancer mouse model. […]
# The appropriate amount of compound 8b was sonicated in a PEG-400 solution (80% w/v in case of Example B6B; and 50% w/v in case of Example B6C) to completely dissolve the compound, followed by dropwise addition of the required amount of H2O. […] During the course of the study, the tumor was measured and the weight of the mice was determined. […]
# [2] = 10 nM, read-out: Average % Inh @ 10 nM
# [3] = 100 nM, read-out: Average % Inh @ 100 nM
# [4] = 1 μM, read-out: Average % Inh @ 1 μM
# T2 sequence (P54646 whole entry): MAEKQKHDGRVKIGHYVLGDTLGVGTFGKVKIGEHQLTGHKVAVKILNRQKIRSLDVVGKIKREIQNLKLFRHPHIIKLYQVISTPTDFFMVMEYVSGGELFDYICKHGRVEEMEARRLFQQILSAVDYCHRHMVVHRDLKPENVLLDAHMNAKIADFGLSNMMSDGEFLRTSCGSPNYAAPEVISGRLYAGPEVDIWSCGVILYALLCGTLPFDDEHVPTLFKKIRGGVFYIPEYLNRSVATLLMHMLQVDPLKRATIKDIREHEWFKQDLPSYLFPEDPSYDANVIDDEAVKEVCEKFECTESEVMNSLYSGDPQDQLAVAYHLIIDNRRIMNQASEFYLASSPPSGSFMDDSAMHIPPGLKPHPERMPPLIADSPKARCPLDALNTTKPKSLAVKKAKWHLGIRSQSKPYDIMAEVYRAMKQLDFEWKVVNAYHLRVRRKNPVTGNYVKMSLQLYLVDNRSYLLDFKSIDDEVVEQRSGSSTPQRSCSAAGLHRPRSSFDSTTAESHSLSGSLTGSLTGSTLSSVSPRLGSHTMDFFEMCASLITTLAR
# T2 sequence (Q9Y478 whole entry partner): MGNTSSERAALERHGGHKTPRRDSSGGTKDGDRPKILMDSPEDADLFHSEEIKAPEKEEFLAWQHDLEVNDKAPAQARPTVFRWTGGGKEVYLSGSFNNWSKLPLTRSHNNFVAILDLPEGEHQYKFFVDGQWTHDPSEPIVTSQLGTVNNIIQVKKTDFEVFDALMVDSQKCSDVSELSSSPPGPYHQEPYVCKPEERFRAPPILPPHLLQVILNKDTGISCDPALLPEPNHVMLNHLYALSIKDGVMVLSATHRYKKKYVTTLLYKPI
# T2 sequence (P54619 whole entry partner): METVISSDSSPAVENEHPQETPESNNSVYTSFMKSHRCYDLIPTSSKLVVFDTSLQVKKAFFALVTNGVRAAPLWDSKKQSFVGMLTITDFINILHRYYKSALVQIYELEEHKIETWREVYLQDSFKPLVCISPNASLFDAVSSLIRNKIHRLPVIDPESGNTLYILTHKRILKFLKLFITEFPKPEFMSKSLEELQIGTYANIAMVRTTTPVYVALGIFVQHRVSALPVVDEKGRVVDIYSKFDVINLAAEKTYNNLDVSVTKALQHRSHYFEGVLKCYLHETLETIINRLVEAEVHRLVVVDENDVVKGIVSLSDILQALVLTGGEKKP
# Chain of LCK (P06239 whole entry): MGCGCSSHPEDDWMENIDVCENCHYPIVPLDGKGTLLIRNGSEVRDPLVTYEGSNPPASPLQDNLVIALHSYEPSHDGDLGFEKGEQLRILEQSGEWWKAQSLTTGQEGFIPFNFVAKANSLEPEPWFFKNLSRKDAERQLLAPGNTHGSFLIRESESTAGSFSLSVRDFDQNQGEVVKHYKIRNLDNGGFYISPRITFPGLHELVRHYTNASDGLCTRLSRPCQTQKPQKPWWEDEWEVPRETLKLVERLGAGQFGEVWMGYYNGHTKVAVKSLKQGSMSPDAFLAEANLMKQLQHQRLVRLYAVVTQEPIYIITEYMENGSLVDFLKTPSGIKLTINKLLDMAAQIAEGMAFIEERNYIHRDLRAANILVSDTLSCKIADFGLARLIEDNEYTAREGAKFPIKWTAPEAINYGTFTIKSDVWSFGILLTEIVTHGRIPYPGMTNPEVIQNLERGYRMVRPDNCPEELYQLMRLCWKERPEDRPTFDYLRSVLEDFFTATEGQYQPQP
# Chain of LYN (P07948 whole entry): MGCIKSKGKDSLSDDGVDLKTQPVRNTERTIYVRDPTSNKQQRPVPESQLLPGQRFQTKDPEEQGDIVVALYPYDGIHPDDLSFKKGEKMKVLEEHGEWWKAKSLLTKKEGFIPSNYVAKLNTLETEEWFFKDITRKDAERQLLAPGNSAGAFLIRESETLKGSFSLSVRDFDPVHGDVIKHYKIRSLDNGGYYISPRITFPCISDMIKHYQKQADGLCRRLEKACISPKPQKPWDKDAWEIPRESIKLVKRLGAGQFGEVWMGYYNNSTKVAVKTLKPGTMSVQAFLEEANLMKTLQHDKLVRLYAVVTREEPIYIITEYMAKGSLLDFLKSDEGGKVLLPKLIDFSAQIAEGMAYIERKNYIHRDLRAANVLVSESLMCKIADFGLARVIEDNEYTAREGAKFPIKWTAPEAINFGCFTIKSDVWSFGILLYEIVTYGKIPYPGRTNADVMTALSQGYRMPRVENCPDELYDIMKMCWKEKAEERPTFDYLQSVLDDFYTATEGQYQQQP
# Chain of FGFR2 (P21802 22-821): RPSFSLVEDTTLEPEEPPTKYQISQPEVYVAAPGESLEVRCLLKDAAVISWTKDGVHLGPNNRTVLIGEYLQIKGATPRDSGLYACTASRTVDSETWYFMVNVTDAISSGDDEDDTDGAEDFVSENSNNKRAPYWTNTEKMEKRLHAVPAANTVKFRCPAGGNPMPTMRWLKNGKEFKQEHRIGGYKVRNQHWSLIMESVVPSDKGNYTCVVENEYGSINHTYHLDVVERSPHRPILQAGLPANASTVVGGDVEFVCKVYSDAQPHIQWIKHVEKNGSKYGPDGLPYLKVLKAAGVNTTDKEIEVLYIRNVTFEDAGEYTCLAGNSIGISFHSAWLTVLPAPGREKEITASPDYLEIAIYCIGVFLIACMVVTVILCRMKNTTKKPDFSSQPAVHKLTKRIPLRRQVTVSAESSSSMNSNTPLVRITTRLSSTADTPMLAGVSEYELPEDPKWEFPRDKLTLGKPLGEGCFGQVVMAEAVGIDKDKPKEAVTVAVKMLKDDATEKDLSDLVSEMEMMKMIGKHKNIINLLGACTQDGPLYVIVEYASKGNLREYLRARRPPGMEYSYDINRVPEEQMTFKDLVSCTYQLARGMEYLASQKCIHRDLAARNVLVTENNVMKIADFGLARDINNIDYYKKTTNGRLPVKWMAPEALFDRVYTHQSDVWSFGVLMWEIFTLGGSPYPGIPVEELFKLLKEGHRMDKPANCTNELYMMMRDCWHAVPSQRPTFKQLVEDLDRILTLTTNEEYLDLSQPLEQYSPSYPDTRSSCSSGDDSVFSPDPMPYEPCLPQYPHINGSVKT
# Chain of RET(Y791F) (P07949 29-1114 Y791F): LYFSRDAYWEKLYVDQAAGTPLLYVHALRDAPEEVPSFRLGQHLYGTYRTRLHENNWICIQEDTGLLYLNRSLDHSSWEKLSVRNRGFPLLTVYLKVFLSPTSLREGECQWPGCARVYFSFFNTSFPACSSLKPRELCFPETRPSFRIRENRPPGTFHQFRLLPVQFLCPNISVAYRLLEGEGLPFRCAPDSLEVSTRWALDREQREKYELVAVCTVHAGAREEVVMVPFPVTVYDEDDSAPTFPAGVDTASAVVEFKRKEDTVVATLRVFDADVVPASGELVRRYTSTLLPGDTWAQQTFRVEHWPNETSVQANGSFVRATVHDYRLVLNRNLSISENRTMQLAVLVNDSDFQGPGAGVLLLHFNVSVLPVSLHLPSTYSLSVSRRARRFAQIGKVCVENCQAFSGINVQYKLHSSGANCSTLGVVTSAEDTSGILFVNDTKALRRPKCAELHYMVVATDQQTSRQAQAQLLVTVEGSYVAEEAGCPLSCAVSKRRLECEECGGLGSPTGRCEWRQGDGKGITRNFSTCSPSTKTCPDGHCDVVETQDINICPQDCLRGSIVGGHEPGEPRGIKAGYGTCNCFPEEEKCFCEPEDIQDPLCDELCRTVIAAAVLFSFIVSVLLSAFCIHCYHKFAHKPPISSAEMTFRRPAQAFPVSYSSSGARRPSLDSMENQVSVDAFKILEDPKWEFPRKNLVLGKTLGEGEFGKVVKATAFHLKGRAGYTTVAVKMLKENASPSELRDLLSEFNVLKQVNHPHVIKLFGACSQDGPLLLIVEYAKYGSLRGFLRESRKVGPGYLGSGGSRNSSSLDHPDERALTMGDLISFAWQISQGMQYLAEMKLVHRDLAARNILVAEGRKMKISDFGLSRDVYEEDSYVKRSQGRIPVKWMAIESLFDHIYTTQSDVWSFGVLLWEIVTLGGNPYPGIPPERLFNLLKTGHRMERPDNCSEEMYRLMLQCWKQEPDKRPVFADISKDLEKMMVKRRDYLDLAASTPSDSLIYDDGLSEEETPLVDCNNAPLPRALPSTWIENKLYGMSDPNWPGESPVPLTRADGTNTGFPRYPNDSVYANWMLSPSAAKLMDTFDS
# Chain of Hck (P08631 whole entry): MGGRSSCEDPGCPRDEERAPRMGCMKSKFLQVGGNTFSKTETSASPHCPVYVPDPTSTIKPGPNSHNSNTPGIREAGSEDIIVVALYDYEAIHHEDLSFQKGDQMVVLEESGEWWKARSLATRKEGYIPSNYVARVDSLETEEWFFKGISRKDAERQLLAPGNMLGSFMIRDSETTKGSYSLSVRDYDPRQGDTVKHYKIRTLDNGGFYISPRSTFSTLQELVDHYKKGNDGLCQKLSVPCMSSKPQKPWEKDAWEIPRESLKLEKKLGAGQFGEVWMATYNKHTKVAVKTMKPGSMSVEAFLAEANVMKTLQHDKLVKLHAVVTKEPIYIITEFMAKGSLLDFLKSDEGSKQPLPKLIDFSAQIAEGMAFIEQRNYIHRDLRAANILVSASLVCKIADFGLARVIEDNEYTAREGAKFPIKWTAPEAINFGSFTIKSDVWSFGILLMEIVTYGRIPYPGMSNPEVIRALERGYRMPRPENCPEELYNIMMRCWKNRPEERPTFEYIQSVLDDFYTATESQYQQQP
compound,measurement,setting,value
"O=C(Nc1ccc(F)nc1)C1CCCN1c1nc2c(c(Nc3cc(C4CC4)[nH]n3)n1)CCC2 (single isomer, unassigned) [Compound 2b, 1-(4-(5-cyclopropyl-1H-pyrazol-3-ylamino)-6,7-dihydro-5H-cyclopenta[d]pyrimidin-2-yl)-N-(6-fluoropyridin-3-yl)pyrrolidine-2-carboxamide]",inhibition at 0.01 µM,LCK; [2],< 39%
same,inhibition at 0.1 µM,LCK; [3],< 39%
same,inhibition at 1 µM,LCK; [4],> 60%
same,inhibition at 0.01 µM,Hck; [2],< 39%
same,inhibition at 0.1 µM,Hck; [3],40 to 59%
same,inhibition at 1 µM,Hck; [4],> 60%
same,inhibition at 0.01 µM,"MST1; MST1, 10 nM, read-out: Average % Inh @ 10 nM",< 39%
same,inhibition at 0.1 µM,"MST1; MST1, 100 nM, read-out: Average % Inh @ 100 nM",40 to 59%
same,inhibition at 1 µM,"MST1; MST1, 1 μM, read-out: Average % Inh @ 1 μM",> 60%
same,inhibition at 0.01 µM,RET(Y791F); [2],< 39%
same,inhibition at 0.1 µM,RET(Y791F); [3],40 to 59%
same,inhibition at 1 µM,RET(Y791F); [4],> 60%
same,inhibition at 0.01 µM,"AMPK-α2/β1/γ1; AMPK-α2/β1/γ1, 10 nM, read-out: Average % Inh @ 10 nM",< 39%
same,inhibition at 0.1 µM,"AMPK-α2/β1/γ1; AMPK-α2/β1/γ1, 100 nM, read-out: Average % Inh @ 100 nM",40 to 59%
same,inhibition at 1 µM,"AMPK-α2/β1/γ1; AMPK-α2/β1/γ1, 1 μM, read-out: Average % Inh @ 1 μM",> 60%
same,inhibition at 0.01 µM,FYN; [2],< 39%
same,inhibition at 0.1 µM,FYN; [3],> 60%
same,inhibition at 1 µM,FYN; [4],> 60%
same,inhibition at 1 µM,EPHA2,> 60%
same,inhibition at 1 µM,FLT3,40 to 59%
same,inhibition at 0.01 µM,LYN; [2],< 39%
same,inhibition at 0.1 µM,LYN; [3],40 to 59%
same,inhibition at 1 µM,LYN; [4],> 60%
same,inhibition at 0.01 µM,"FGFR2; FGFR2, 10 nM, read-out: Average % Inh @ 10 nM",< 39%
same,inhibition at 0.1 µM,"FGFR2; FGFR2, 100 nM, read-out: Average % Inh @ 100 nM",< 39%
same,inhibition at 1 µM,"FGFR2; FGFR2, 1 μM, read-out: Average % Inh @ 1 μM",> 60%
same,inhibition at 0.01 µM,Abl(T315I); [2],< 39%
same,inhibition at 0.1 µM,Abl(T315I); [3],< 39%
same,inhibition at 1 µM,Abl(T315I); [4],> 60%
same,inhibition at 0.01 µM,FGR; [2],< 39%
same,inhibition at 0.1 µM,FGR; [3],< 39%
same,inhibition at 1 µM,FGR; [4],> 60%
"CC(C)c1cc(Nc2nc(N3CCCC3C(=O)Nc3ccc(F)nc3)nc3c2CCC3)n[nH]1 (single isomer, unassigned) [Compound 8b]",IC50,ASPC-1,195 nM
same,tumor burden,"[1]; MCF7 breast cancer model, nude mice, 10 and 15 mg/kg/po, various schedules (FIG. 2)",dose-dependently and significantly reduced tumor burden
same,body weights of the mice,[1]; MCF7 xenograft model (FIG. 4),dose-dependently reduced body weights
